Columns and labels:
Cak1p = target: T1, Cak1p (Saccharomyces cerevisiae, UniProt P43568); assay: kinase assay in immunoprecipitates, Cak1p; assay type: biochemical; conditions: immunoprecipitated yeast kinase
T1 construct: made in house

[1] = test system: drug-sensitized yeast strain; assay: yeast growth inhibition; assay type: cell-based; conditions: Saccharomyces cerevisiae; strain with drug-sensitizing deletions (erg6, pdr5, snq2)
yeast cells = assay: yeast arrest morphology and FACS; assay type: cell-based
Text: 16. The diminished growth inhibitory activity of compound 52Me is unlikely to result from poorer bioavailability because a similar N6 methylation is observed to increase the in vivo potency of a related series of purine-based inhibitors. The residual growth inhibitory activity of 52Me likely reflects activity against other cellular targets.

cdc2-cyclin B = assay: purified kinase phosphorylation assay, cdc2-cyclin B; assay type: biochemical, Starfish
Text: (§1) To examine the effects of a range of diverse substituents on the purine ring, we synthesized combinatorial libraries in which the 2, 6, and 9 positions could be varied starting with a 2-flouro-6-chloropurine framework. (FIG. 1A) (2,3). Substitution chemistry was used to install amines at the 2 and 6 positions, and a Mitsunobu reaction (4,5) was used to alkylate the N9 position of the purine core. The subsitution chemistry allows introduction of primary and secondary amines bearing a wide range of functional groups, whereas the Mitsunobu reaction tolerates primary and secondary alcohols lacking additional acidic hydrogens. Newly appended groups can be modified combinatorially in subsequent steps with a variety of chemistries including acylation, reductive amination, and Suzuki coupling reactions (6), During library synthesis, one position is held invariant to allow attachment to the solid support. Libraries are synthesized in a spatially separated format with either a pin apparatus (7) or polystyrene resin and screened for kinase inhibitors with a 96-well, solution-phase phosphorylation assay.
9. Starfish is the major source for cdc2-cyclin B kinase.

Pho85p = target: T2, Pho85p (Saccharomyces cerevisiae, UniProt P17157); assay: kinase assay in immunoprecipitates, Pho85p; assay type: biochemical, yeast; conditions: for inhibition of Pho85p (in words): immunoprecipitates
T2 construct: made in house

Kin28p = target: T3, Kin28p (Saccharomyces cerevisiae, UniProt P06242); assay: kinase assay in immunoprecipitates, Kin28p; assay type: biochemical; conditions: immunoprecipitated yeast kinase
T3 construct: made in house

Cdc28p = target: T4, Cdc28p (Saccharomyces cerevisiae, UniProt P00546); assay: kinase assay in immunoprecipitates, Cdc28p; assay type: biochemical, yeast; conditions: for inhibition of Cdc28p (in words): immunoprecipitates
T4 construct: made in house

Srb10 = target: T5, Srb10 (Saccharomyces cerevisiae, UniProt P39073); assay: kinase assay in immunoprecipitates, Srb10; assay type: biochemical; conditions: immunoprecipitated yeast kinase
T5 construct: made in house

[2] = test system: mRNA levels of nearly all yeast genes; assay: transcript profiling with high-density oligonucleotide expression arrays; assay type: cell-based, S. cerevisiae; conditions: for number of genes with greater than twofold change in transcript level: more than 6200 genes monitored; for YCRX13W SOL2 transcript INCREASE: FLA UNIQUE
Method: In addition to measuring the inhibitory effects of purine derivatives in kinase assays and assays of cell growth, their effects on the mRNA levels of nearly all yeast genes were determined with high-density oligonucleotide expression arrays (17, 18). These arrays (19, 20) make it possible to measure quantitatively and in parallel mRNA levels for a very large number of genes after any chemical, environmental, or genetic perturbation.
Yeast cultures were grown to late logarithmic phase (15), treated with 25 μM concentrations of the inhibitors for 2 hours, after which cellular polyadenylated mRNA was isolated and converted to biotin-labeled complementary RNA (cRNA) (17, 18). The labeled cRNA was then hybridized to a set of four arrays containing more than 260,000 25-nucleotide oligomers (20).
15. […] Three cultures [110 ml, in yeast extract, peptone, and dextrose (YPD)] were inoculated with single colonies of YRP1 (MAT, erg6::LEU2, pdr5::TRP1, snq2::HIS6) and grown at 30° C. with constant agitation in a water bath incubator. When the cell density reached an optical density (OD) of 0.9 (at a wavelength of 600 nm), 27.5 μl of a 100 mM dimethyl sulfoxide (DMSO) stock solution of 52 or flavopiridol or DMSO alone was added. After 2 hours the cells were harvested by centrifugation and flash frozen with liquid nitrogen. For the temperature-sensitive cdc28 mutants, three cultures (75 ml, YPD) of AFS 199 (cdc28-13), AA104 (cdc28-4), and their isogenic background strain AFS34 (MATa, ade2-1, his3-11, leu2-3, trp1-1, ura3) were grown from single colonies to an OD of 0.9 (600 nm) and harvested as described. Frozen cells were stored at […]

cdk2-cyclin A = cdk2-cyclin A (Homo sapiens, UniProt P24941); assay: purified kinase assay, cdk2-cyclin A; assay type: biochemical
Text: as §1

[3] = test system: NCI-H522 non-small cell lung cancer cell line; assay: NCI panel growth inhibition, NCI-H522; assay type: cell-based, human
[4] = target: cGMP-dependent protein kinase (Homo sapiens, UniProt Q13976); assay: purified kinase assay, cGMP-dependent protein kinase; assay type: biochemical
Text: as §1

Protein kinase C [5] = target: Protein kinase C (Homo sapiens, UniProt Q05513); assay: purified kinase assay, Protein kinase C (Table 1 r22); assay type: biochemical; conditions: Table 1 r22, isoform symbol not given
Text: as §1

cdk4-cyclin D1 = cdk4-cyclin D1 (Homo sapiens, UniProt P11802); assay: purified kinase assay, cdk4-cyclin D1; assay type: biochemical
Text: as §1

Protein kinase C2 = Protein kinase C2 (Homo sapiens, UniProt P05771); assay: purified kinase assay, Protein kinase C2 (Table 1 r17); assay type: biochemical
Text: as §1

GSK3- = GSK3- (Homo sapiens, UniProt P49841); assay: purified kinase assay, GSK3-; assay type: biochemical
Text: as §1

Protein kinase C [6] = target: Protein kinase C (Homo sapiens, UniProt Q02156); assay: purified kinase assay, Protein kinase C (Table 1 r20); assay type: biochemical; conditions: Table 1 r20, isoform symbol not given
Text: as §1

Protein kinase C [7] = target: Protein kinase C (Homo sapiens, UniProt P24723); assay: purified kinase assay, Protein kinase C (Table 1 r21); assay type: biochemical; conditions: Table 1 r21, isoform symbol not given
Text: as §1

Casein kinase 1 = assay: purified kinase assay, Casein kinase 1; assay type: biochemical, human
Text: as §1

[8] = target: c-jun NH2-terminal kinase; assay: purified kinase assay, c-jun NH2-terminal kinase; assay type: biochemical, human
Text: as §1

cdk5-p35 = cdk5-p35 (Homo sapiens, UniProt Q00535); assay: purified kinase assay, cdk5-p35; assay type: biochemical
Text: as §1

[9] = target: cAMP-dependent protein kinase (Homo sapiens, UniProt P17612); assay: purified kinase assay, cAMP-dependent protein kinase; assay type: biochemical
Text: as §1

Protein kinase C1 = Protein kinase C1 (Homo sapiens, UniProt P05771); assay: purified kinase assay, Protein kinase C1 (Table 1 r16); assay type: biochemical
Text: as §1

Protein kinase C [10] = target: Protein kinase C (Homo sapiens, UniProt P05129); assay: purified kinase assay, Protein kinase C (Table 1 r18); assay type: biochemical; conditions: Table 1 r18, isoform symbol not given
Text: as §1

cdk2-cyclin E = cdk2-cyclin E (Homo sapiens, UniProt P24941); assay: purified kinase assay, cdk2-cyclin E; assay type: biochemical
Text: as §1

[11] = test system: KM12 colon cancer cell line; assay: NCI panel growth inhibition, KM12; assay type: cell-based, human
Protein kinase C [12] = target: Protein kinase C (Homo sapiens, UniProt Q05655); assay: purified kinase assay, Protein kinase C (Table 1 r19); assay type: biochemical; conditions: Table 1 r19, isoform symbol not given
Text: as §1

[13] = target: Insulin-receptor tyrosine kinase (Homo sapiens, UniProt P06213); assay: purified kinase assay, Insulin-receptor tyrosine kinase; assay type: biochemical
Text: as §1

[14] = test system: NCI panel of 60 human tumor cell lines; assay: NCI panel growth inhibition; assay type: cell-based
Protein kinase C [15] = target: Protein kinase C (Homo sapiens, UniProt P17252); assay: purified kinase assay, Protein kinase C (Table 1 r15); assay type: biochemical; conditions: Table 1 r15, isoform symbol not given
Text: as §1

erk1 = erk1 (Homo sapiens, UniProt P27361); assay: purified kinase assay, erk1; assay type: biochemical
Text: as §1

[16] = immunoprecipitated yeast kinase
[17] = yeast, inhibitor versus untreated

T2 sequence (P17157 whole entry): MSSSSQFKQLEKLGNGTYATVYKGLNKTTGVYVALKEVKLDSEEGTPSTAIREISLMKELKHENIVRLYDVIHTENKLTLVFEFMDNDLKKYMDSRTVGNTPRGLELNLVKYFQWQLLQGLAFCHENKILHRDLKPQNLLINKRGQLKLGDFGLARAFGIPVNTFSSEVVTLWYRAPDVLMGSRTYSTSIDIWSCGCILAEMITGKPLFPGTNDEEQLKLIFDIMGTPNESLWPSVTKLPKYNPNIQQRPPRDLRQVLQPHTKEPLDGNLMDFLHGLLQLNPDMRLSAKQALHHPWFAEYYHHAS
T4 sequence (P00546 whole entry): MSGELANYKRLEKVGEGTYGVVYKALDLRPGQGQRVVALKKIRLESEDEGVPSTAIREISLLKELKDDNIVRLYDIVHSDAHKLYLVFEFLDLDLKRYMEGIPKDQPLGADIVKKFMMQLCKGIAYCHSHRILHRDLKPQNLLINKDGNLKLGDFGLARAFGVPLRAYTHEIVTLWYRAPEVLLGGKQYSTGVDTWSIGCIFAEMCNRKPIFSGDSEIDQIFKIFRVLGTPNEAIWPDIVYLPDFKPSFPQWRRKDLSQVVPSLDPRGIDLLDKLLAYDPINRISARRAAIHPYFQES
erk1, sequence (P27361 whole entry): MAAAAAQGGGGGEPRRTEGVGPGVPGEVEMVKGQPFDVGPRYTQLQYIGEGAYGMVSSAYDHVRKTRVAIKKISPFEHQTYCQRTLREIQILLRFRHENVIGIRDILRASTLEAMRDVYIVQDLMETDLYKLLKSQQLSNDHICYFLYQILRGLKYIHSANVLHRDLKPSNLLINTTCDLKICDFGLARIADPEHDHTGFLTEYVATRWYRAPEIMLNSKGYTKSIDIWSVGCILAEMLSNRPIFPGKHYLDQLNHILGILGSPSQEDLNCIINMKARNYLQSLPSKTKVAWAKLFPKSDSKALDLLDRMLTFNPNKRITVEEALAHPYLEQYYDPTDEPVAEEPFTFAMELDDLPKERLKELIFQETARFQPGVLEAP
Protein kinase C2, sequence (P05771 1-673 isoform P05771-2): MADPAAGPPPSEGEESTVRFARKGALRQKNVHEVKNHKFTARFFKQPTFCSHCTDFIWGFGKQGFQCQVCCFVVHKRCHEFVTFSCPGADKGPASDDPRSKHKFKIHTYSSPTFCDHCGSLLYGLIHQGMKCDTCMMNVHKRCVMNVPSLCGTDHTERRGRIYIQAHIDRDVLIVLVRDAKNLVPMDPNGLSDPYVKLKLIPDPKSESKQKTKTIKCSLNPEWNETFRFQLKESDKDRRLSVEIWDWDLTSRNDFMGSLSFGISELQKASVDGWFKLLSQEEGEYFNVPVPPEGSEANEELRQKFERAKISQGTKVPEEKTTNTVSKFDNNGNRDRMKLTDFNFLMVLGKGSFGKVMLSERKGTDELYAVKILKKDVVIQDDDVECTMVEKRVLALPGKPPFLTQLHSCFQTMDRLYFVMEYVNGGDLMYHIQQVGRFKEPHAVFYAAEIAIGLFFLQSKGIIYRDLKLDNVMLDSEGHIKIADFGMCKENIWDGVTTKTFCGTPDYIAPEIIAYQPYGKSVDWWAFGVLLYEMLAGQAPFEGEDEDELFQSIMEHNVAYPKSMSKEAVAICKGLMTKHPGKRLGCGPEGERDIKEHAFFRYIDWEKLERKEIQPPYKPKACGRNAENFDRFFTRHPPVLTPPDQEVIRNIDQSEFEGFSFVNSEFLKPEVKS
T1 sequence (P43568 whole entry): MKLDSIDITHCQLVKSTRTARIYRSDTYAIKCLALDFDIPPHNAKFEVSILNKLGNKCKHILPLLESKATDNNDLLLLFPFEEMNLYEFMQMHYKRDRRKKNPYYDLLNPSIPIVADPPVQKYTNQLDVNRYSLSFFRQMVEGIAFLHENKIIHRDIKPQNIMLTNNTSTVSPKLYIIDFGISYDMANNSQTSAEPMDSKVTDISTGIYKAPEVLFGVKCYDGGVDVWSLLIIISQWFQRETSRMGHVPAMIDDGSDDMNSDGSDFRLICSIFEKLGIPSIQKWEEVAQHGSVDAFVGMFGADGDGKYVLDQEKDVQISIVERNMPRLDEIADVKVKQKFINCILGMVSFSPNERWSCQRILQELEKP
cdk5-p35, sequence (Q00535 whole entry): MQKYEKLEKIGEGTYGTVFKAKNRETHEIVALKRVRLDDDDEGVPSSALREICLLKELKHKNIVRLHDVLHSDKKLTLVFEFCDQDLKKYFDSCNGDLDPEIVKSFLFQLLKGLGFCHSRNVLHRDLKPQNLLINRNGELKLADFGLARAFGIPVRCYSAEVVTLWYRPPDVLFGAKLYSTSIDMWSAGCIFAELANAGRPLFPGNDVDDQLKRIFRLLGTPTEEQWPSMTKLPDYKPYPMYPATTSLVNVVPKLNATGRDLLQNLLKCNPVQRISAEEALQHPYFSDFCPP
cdk5-p35, sequence (Q15078 whole entry partner): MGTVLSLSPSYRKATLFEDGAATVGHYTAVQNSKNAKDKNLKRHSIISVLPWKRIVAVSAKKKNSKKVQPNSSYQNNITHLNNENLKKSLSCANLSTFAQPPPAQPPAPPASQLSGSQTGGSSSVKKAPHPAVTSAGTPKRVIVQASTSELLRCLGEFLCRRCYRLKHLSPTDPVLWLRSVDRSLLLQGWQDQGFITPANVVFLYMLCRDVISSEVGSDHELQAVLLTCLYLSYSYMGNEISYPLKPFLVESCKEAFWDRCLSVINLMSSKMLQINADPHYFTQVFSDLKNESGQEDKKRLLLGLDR
Protein kinase C (Homo sapiens, UniProt Q05655), sequence (Q05655 whole entry, canonical isoform): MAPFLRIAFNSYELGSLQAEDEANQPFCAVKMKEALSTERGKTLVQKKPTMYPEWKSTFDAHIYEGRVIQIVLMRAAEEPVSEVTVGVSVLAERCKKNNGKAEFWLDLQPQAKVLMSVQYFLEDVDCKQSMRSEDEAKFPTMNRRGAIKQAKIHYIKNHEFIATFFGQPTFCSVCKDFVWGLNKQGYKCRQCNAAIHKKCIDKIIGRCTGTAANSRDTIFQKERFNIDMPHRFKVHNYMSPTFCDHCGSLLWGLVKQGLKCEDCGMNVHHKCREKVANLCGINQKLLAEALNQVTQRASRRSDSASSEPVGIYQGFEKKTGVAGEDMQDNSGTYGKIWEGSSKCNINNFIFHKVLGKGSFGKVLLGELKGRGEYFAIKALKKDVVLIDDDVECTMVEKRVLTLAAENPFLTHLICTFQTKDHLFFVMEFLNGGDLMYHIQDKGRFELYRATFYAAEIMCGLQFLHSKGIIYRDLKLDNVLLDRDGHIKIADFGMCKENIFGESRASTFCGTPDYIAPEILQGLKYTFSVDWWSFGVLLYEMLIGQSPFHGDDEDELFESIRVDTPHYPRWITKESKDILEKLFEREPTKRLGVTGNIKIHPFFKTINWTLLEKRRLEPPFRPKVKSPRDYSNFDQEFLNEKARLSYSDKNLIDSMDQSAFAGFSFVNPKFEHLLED
Protein kinase C1, sequence (P05771 whole entry): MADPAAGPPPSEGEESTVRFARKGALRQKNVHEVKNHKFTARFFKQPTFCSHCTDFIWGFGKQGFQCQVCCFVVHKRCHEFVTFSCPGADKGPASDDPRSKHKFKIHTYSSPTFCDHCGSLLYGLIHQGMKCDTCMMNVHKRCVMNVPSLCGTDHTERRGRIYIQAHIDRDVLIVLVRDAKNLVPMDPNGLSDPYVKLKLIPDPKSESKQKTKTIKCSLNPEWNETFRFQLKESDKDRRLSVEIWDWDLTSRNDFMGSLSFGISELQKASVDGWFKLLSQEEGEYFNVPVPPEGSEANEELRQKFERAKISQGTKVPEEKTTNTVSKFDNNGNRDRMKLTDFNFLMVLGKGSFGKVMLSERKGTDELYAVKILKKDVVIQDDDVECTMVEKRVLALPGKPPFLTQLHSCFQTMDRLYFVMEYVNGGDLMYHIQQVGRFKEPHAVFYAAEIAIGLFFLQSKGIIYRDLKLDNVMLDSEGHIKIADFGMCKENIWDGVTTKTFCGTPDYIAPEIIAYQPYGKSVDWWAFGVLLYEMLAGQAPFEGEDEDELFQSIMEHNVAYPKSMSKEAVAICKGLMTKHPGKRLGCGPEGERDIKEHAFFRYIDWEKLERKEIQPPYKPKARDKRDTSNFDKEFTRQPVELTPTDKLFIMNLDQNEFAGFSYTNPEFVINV

SMILES: CC(C)n1cnc2c(Nc3cccc(Cl)c3)nc(NCCO)nc21 [Compound 52, 2-(2-hydroxyethylamino)-6-(3-chloroanilino)-9-isopropylpurine]
- IC50 (Cak1p): > 500 µM
- GI50 [1]: 30 µM
- arrest morphology in yeast (in words) (yeast cells): failed to cause a uniform arrest morphology
- synchronization of yeast cells by FACS (in words) (yeast cells): did not reveal synchronization
- IC50 (cdc2-cyclin B): 0.34 µM
- IC50 (Pho85p; [16]): 2 µM
- inhibition of Pho85p (in words) (Pho85p): inhibited
- IC50 (Kin28p): > 500 µM
- IC50 (Cdc28p; [16]): 7 µM
- inhibition of Cdc28p (in words) (Cdc28p): inhibited
- IC50 (Srb10): > 500 µM
- % of transcripts with greater than twofold change ([2]; 25 μM, 2 hours): 3%
- number of genes whose transcript levels were decreased at least threefold ([2]; 25 μM, 2 hours): ~50
- ribosomal protein transcripts decreased at least threefold ([2]; 25 μM, 2 hours): 14
- number of genes with greater than twofold change in transcript level ([2]; 25 μM, 2 hours): 194
- YKLO71W transcript Increase ([2]; C52 UNIQUE): 7-12 × Increase (C52)
- YCRX13W SOL2 transcript INCREASE [2]: C52 - much smaller inc. (NL. 8 x at most) ×
- Y13R214W transcript INCREASES [2, 17]: (4-4.5 × for C52
- YBL002W HTB2 transcript DECREASES [2, 17]: (˜4.5 × for C52
- YBR296C transcript change (in words) [2, 17]: VERY LARGE INCREASE (15-
- YDR281 C transcript INCREASE [2, 17]: ˜4.5-5.5 × INCREASE
- YGLI79 transcript change (in words) [2, 17]: INCREASES C52 & FLA
- YGR108W (CLB 1) transcript DECREASES [2, 17]: (˜8 fold with C52
- YKRO97W PCK1 transcript INCREASES [2, 17]: ˜7-8 fold with C52
- YLR178c (TFS1) transcript INCREASES [2, 17]: INCREASES ˜6x

SMILES: CC(C)[C@H](CO)Nc1nc(Nc2cccc(Cl)c2)c2ncn(C(C)C)c2n1 [purvalanol A]
- IC50 (cdk2-cyclin A): 0.07 µM
- GI50 [3]: 0.347 µM
- IC50 [4]: > 10 µM
- IC50 (Protein kinase C [5]): > 100 µM
- IC50 (cdk4-cyclin D1): 0.85 µM
- inhibition of Pho85p (in words) (Pho85p): inhibited
- IC50 (Protein kinase C2): > 10 µM
- IC50 (GSK3-): > 10 µM
- IC50 (Protein kinase C [6]): > 100 µM
- IC50 (Protein kinase C [7]): > 100 µM
- IC50 (Casein kinase 1): > 3.33 µM
- IC50 [8]: > 1 µM
- IC50 (cdk5-p35): 0.075 µM
- IC50 [9]: 9 µM
- inhibition of Cdc28p (in words) (Cdc28p): inhibited
- IC50 (Protein kinase C1): > 10 µM
- IC50 (Protein kinase C [10]): > 10 µM
- IC50 (cdk2-cyclin E): 0.035 µM
- GI50 [11]: 0.076 µM
- IC50 (Protein kinase C [12]): > 100 µM
- IC50 [13]: 5 µM
- increase in sensitivity of two cell lines out of the 60 ([14]; KM12 and NCI-H522 versus average GI50): ~20 fold
- GI50 ([14]; read-out: average GI50 (50% growth inhibition), average over 60 cell lines): 2 µM
- IC50 (Protein kinase C [15]): > 10 µM
- IC50 (erk1): 9 µM

SMILES: CN1CC[C@H](c2c(O)cc(O)c3c(=O)cc(-c4ccccc4Cl)oc23)[C@H](O)C1 [flavopiridol, reference compound]
- GI50 [1]: 7 µM
- arrest morphology in yeast (in words) (yeast cells): failed to cause a uniform arrest morphology
- % of transcripts with greater than twofold change ([2]; 25 μM, 2 hours): 2%
- ribosomal protein transcripts decreased at least threefold ([2]; 25 μM, 2 hours): no ribosomal protein transcript levels decreased more than threefold
- number of genes with greater than twofold change in transcript level ([2]; 25 μM, 2 hours): 132
- YCRX13W SOL2 transcript INCREASE [2]: 7.5-10 × INCREASE
- Y13R214W transcript INCREASES [2, 17]: 7-8.5 × for FLA
- YBL002W HTB2 transcript DECREASES [2, 17]: ˜2.7 × for FLA
- YBR296C transcript change (in words) [2, 17]: VERY LARGE INCREASE (15-
- YGLI79 transcript change (in words) [2, 17]: INCREASES C52 & FLA
- YGR108W (CLB 1) transcript DECREASES [2, 17]: ˜2.5-3 fold with FLA)
- YKRO97W PCK1 transcript INCREASES [2, 17]: ˜4 × with FLA fold
- YLR178c (TFS1) transcript INCREASES [2, 17]: INCREASES ˜6x

Source: patent US6524800B2, “Exploiting genomics in the search for new drugs” (Affymetrix, Inc., priority 1997, dated 2003)
